Values quoted from earlier work in patent publication US20250319042A1, “SKIN CARE PRODUCT WITH LAPACHOL AND METHOD FOR USE THEREOF” (priority 2024, published 2025).

Experiments:
MMP-8 = conditions: in cell culture
prostaglandin E2 (PGE2) = conditions: in cell culture
MMP-9 = conditions: in cell culture
[1] = test system: tumor necrosis factor alpha (TNF-a); conditions: in cell culture
[2] = test system: matrix metalloproteinase 3 (MMP-3); conditions: in cell culture

Row | Structure (SMILES) | solubility | inhibition of MMP-8 (MMP-8) | inhibition of PGE2 (prostaglandin E2 (PGE2)) | inhibition of MMP-9 (MMP-9) | inhibition of TNF-a [1] | inhibition of MMP-3 [2]
1 | CC(C)=CCC1=C(O)C(=O)c2ccccc2C1=O [lapachol, 2-hydroxy-3-(3-methyl-2-butenyl)-1,4-naphtoquinone] | primarily oil-soluble | – | – | – | – | –
2 | CC1(C)CCC2=C(O1)c1ccccc1C(=O)C2=O [beta-lapachone] | – | inhibits | inhibits | inhibits | inhibits | inhibits
